Test results as given in ChEMBL document CHEMBL5303573, “Mapping human microbiome drug metabolism by gut bacteria and their genes” (Nature, 2019).

Tests used:
[1] = The drug is tested on Bacteroides xylanisolvens strain: DSM18836 for biotransformation. The drug concentrations were measured before and after a 12-h incubation by liquid-chromatography-coupled mass spectrometry (LC–MS); conditions: 2 µM
[2] = bacteroides eggerthii, 12 h, 2 µM
Description: The drug is tested on Bacteroides eggerthii strain: DSM20697 for biotransformation. The drug concentrations were measured before and after a 12-h incubation by liquid-chromatography-coupled mass spectrometry (LC–MS)

[3] = bacteroides intestinalis, 12 h, 2 µM
Description: The drug is tested on Bacteroides intestinalis strain: DSM17393 for biotransformation. The drug concentrations were measured before and after a 12-h incubation by liquid-chromatography-coupled mass spectrometry (LC–MS)

[4] = The drug is tested on Bacteroides caccae strain: ATCC43185 for biotransformation. The drug concentrations were measured before and after a 12-h incubation by liquid-chromatography-coupled mass spectrometry (LC–MS); conditions: 2 µM
[5] = The drug is tested on Providencia rettgeri strain: DSM1131 for biotransformation. The drug concentrations were measured before and after a 12-h incubation by liquid-chromatography-coupled mass spectrometry (LC–MS); type: ADME; design: dose 2 uM, timepoint 0 vs 12 hours; conditions: 2 µM
[6] = bacteroides thetaiotaomicron, 12 h, 2 µM
Description: The drug is tested on Bacteroides thetaiotaomicron strain: VPI-5482 for biotransformation. The drug concentrations were measured before and after a 12-h incubation by liquid-chromatography-coupled mass spectrometry (LC–MS)

[7] = victivallis vadensis, 12 h, 2 µM
Description: The drug is tested on Victivallis vadensis strain: ATCC BAA-548 for biotransformation. The drug concentrations were measured before and after a 12-h incubation by liquid-chromatography-coupled mass spectrometry (LC–MS)

[8] = The drug is tested on Parabacteroides merdae strain: ATCC43184 for biotransformation. The drug concentrations were measured before and after a 12-h incubation by liquid-chromatography-coupled mass spectrometry (LC–MS); conditions: 2 µM
[9] = The drug is tested on Blautia luti strain: DSM14534 for biotransformation. The drug concentrations were measured before and after a 12-h incubation by liquid-chromatography-coupled mass spectrometry (LC–MS); type: ADME; design: dose 2 uM, timepoint 0 vs 12 hours; conditions: 2 µM
[10] = bifidobacterium adolescentis, 12 h, 2 µM
Description: The drug is tested on Bifidobacterium adolescentis strain: ATCC 15703 for biotransformation. The drug concentrations were measured before and after a 12-h incubation by liquid-chromatography-coupled mass spectrometry (LC–MS)

[11] = bacteroides thetaiotaomicron, 12 h, 2 µM; remark: listed apart in the source
Description: The drug is tested on Bacteroides thetaiotaomicron strain: 3731 for biotransformation. The drug concentrations were measured before and after a 12-h incubation by liquid-chromatography-coupled mass spectrometry (LC–MS)

[12] = The drug is tested on Bacteroides fragilis strain: ATCC43859 for biotransformation. The drug concentrations were measured before and after a 12-h incubation by liquid-chromatography-coupled mass spectrometry (LC–MS); conditions: 2 µM
[13] = The drug is tested on Enterococcus faecalis strain: V583 for biotransformation. The drug concentrations were measured before and after a 12-h incubation by liquid-chromatography-coupled mass spectrometry (LC–MS); conditions: 2 µM
[14] = The drug is tested on Clostridium ramosum strain: DSM1402 for biotransformation. The drug concentrations were measured before and after a 12-h incubation by liquid-chromatography-coupled mass spectrometry (LC–MS); conditions: thomasclavelia ramosa, 2 µM
[15] = The drug is tested on Clostridium scindens strain: ATCC35704 for biotransformation. The drug concentrations were measured before and after a 12-h incubation by liquid-chromatography-coupled mass spectrometry (LC–MS); conditions: 2 µM
[16] = The drug is tested on Collinsella intestinalis strain: DSM13280 for biotransformation. The drug concentrations were measured before and after a 12-h incubation by liquid-chromatography-coupled mass spectrometry (LC–MS); conditions: 2 µM
[17] = The drug is tested on Clostridium sporogenes strain: ATCC15579 for biotransformation. The drug concentrations were measured before and after a 12-h incubation by liquid-chromatography-coupled mass spectrometry (LC–MS); conditions: 2 µM
[18] = parabacteroides johnsonii, 12 h, 2 µM
Description: The drug is tested on Parabacteroides johnsonii strain: DSM18315 for biotransformation. The drug concentrations were measured before and after a 12-h incubation by liquid-chromatography-coupled mass spectrometry (LC–MS)

[19] = limosilactobacillus reuteri cf48-3a, 12 h, 2 µM
Description: The drug is tested on Lactobacillus reuteri CF48-3A strain: BEI HM-102 for biotransformation. The drug concentrations were measured before and after a 12-h incubation by liquid-chromatography-coupled mass spectrometry (LC–MS)

[20] = The drug is tested on Bacteroides coprophilus strain: DSM18228 for biotransformation. The drug concentrations were measured before and after a 12-h incubation by liquid-chromatography-coupled mass spectrometry (LC–MS); conditions: 2 µM

Bacterial Biotransformation [1]	Bacterial Biotransformation [2]	Bacterial Biotransformation [3]	Bacterial Biotransformation [4]	Bacterial Biotransformation [5]	Bacterial Biotransformation [6]	Bacterial Biotransformation [7]	Bacterial Biotransformation [8]	Bacterial Biotransformation [9]	Bacterial Biotransformation [10]	Bacterial Biotransformation [11]	Bacterial Biotransformation [12]	Bacterial Biotransformation [13]	Bacterial Biotransformation [14]	Bacterial Biotransformation [15]	Bacterial Biotransformation [16]	Bacterial Biotransformation [17]	Bacterial Biotransformation [18]	Bacterial Biotransformation [19]	Bacterial Biotransformation [20]	Compound
Compound NOT metabolized	Compound NOT metabolized	Compound NOT metabolized	Compound NOT metabolized	Compound NOT metabolized	Compound NOT metabolized	Compound NOT metabolized	Compound NOT metabolized	Compound NOT metabolized	Compound NOT metabolized	Compound NOT metabolized	Compound NOT metabolized	Compound NOT metabolized	Compound NOT metabolized	Compound NOT metabolized	Compound NOT metabolized	Compound NOT metabolized	Compound NOT metabolized	Compound NOT metabolized		CN1CCc2cccc3c2[C@H]1Cc1ccc(O)c(O)c1-3 [APOMORPHINE]
Compound metabolized	Compound NOT metabolized	Compound NOT metabolized		Compound NOT metabolized	Compound NOT metabolized	Compound NOT metabolized	Compound NOT metabolized	Compound metabolized	Compound metabolized	Compound NOT metabolized	Compound NOT metabolized	Compound metabolized	Compound metabolized	Compound metabolized	Compound metabolized	Compound NOT metabolized	Compound metabolized	Compound NOT metabolized	Compound metabolized	CNC(=C[N+](=O)[O-])NCCSCc1ccc(CN(C)C)o1 [RANITIDINE]
Compound metabolized	Compound metabolized	Compound metabolized	Compound metabolized	Compound metabolized	Compound metabolized	Compound metabolized	Compound metabolized	Compound metabolized		Compound metabolized	Compound NOT metabolized	Compound metabolized	Compound metabolized	Compound metabolized	Compound metabolized	Compound metabolized	Compound metabolized	Compound metabolized	Compound metabolized	CC[C@H](C)C(=O)O[C@H]1CCC=C2C=C[C@H](C)[C@H](CC[C@@H]3C[C@@H](O)CC(=O)O3)[C@H]21 [MEVASTATIN]
Compound metabolized	Compound metabolized	Compound metabolized	Compound metabolized		Compound metabolized	Compound metabolized	Compound metabolized	Compound metabolized	Compound metabolized	Compound metabolized	Compound metabolized	Compound metabolized	Compound metabolized	Compound metabolized	Compound metabolized	Compound metabolized	Compound metabolized	Compound metabolized	Compound metabolized	CCN(CC)C(=O)/C(C#N)=C/c1cc(O)c(O)c([N+](=O)[O-])c1 [ENTACAPONE]

Continued, compound first:

Compound	Bacterial Biotransformation [1]	Bacterial Biotransformation [2]	Bacterial Biotransformation [3]	Bacterial Biotransformation [4]	Bacterial Biotransformation [5]	Bacterial Biotransformation [6]	Bacterial Biotransformation [7]	Bacterial Biotransformation [8]	Bacterial Biotransformation [9]	Bacterial Biotransformation [10]	Bacterial Biotransformation [11]	Bacterial Biotransformation [12]	Bacterial Biotransformation [13]	Bacterial Biotransformation [14]	Bacterial Biotransformation [15]	Bacterial Biotransformation [16]	Bacterial Biotransformation [17]	Bacterial Biotransformation [18]	Bacterial Biotransformation [19]	Bacterial Biotransformation [20]
Nc1ccc(/N=N/c2ccccc2)c(N)n1 [PHENAZOPYRIDINE]	Compound metabolized	Compound metabolized	Compound metabolized	Compound metabolized	Compound NOT metabolized	Compound metabolized	Compound metabolized	Compound metabolized	Compound metabolized		Compound metabolized	Compound metabolized	Compound metabolized	Compound metabolized	Compound metabolized	Compound metabolized	Compound metabolized	Compound metabolized	Compound NOT metabolized	Compound NOT metabolized
C#C[C@]1(O)CC[C@H]2[C@@H]3CCC4=Cc5oncc5C[C@]4(C)[C@H]3CC[C@@]21C [DANAZOL]	Compound metabolized	Compound metabolized	Compound metabolized	Compound metabolized	Compound metabolized	Compound metabolized	Compound metabolized	Compound metabolized	Compound metabolized	Compound metabolized	Compound metabolized	Compound metabolized	Compound metabolized	Compound metabolized	Compound metabolized	Compound metabolized	Compound metabolized	Compound metabolized		Compound NOT metabolized
CC(=O)O[C@]1(C(C)=O)CC[C@H]2[C@@H]3C=C(Cl)C4=CC(=O)[C@@H]5C[C@@H]5[C@]4(C)[C@H]3CC[C@@]21C [CYPROTERONE ACETATE]	Compound metabolized	Compound metabolized	Compound metabolized	Compound NOT metabolized	Compound NOT metabolized		Compound NOT metabolized	Compound NOT metabolized	Compound NOT metabolized	Compound NOT metabolized	Compound metabolized	Compound metabolized	Compound NOT metabolized	Compound NOT metabolized	Compound metabolized	Compound NOT metabolized	Compound metabolized	Compound metabolized	Compound NOT metabolized	Compound metabolized
COc1ccc2c(c1OC)C(=O)O[C@@H]2[C@H]1c2c(cc3c(c2OC)OCO3)CCN1C [NOSCAPINE]	Compound metabolized	Compound NOT metabolized	Compound metabolized	Compound NOT metabolized	Compound metabolized	Compound metabolized	Compound NOT metabolized	Compound metabolized	Compound metabolized	Compound NOT metabolized		Compound NOT metabolized	Compound metabolized	Compound NOT metabolized	Compound metabolized	Compound metabolized	Compound NOT metabolized	Compound metabolized	Compound metabolized	Compound metabolized
